Reference: patent publication EP0623621A1, “Oxazabicyclo derivatives and their use as 5-HT4 receptor agonists” (NISSHIN FLOUR MILLING CO., LTD., priority 1993, dated 1994)

System: longitudinal muscle with adherent myenteric plexus preparation
Experiment: Gastrointestinal motility promoting action: increase of electrically induced twitch response of isolated guinea pig ileum
Assay type: cell-based, guinea pigs
Settings: compound at 10⁻⁵ M, transmural electrical stimulation (1 msec, 0.1 Hz)
Experimental: The gastrointestinal motility promoting action of the present compounds was tested by the following method.
Ileum was excised from guinea pigs to prepare longitudinal muscle with adherent myenteric plexus preparation (approximately 2 cm length). The preparation suspended in organ bath containing Krebs-Henselite solution aerated with a mixed gas (5% CO₂, 95% O₂) were subjected to transmural electrical stimulation (1 msec, 0.1 Hz). Consistent twitch response induced by electrical stimulation and increase of twitch response induced by compound were recorded with an isometric transducer. The compounds were dissolved in distilled water or DMSO and tested at concentration of 10⁻⁵ M. The result is shown in terms of percent increase (%) in the contraction height by the electrical stimulation after administration of the compound relative to the contraction height before administration of the compound. Compound of Example 10 16.1% Compound of Example 29 22.4%

CC(C)=CCn1nc(C(=O)NC2CC3COCC(C2)N3Cc2ccc(F)cc2)c2ccccc21 (stereo not drawn) [Example 10, N-[endo-9-(p-fluorobenzyl)-3-oxa-9-azabicyclo[3.3.1]non-7-yl]-1-(3-methyl-2-butenyl)indazole-3-carboxamide]
percent increase (%) in the contraction height by the electrical stimulation after administration of the compound relative to the contraction height before administration of the compound: 16.1%

COc1cc(N)c(Cl)cc1C(=O)NC1CC2COCC(C1)N2Cc1ccc(F)cc1 (stereo not drawn) [Example 29, N-[endo-9-(p-fluorobenzyl)-3-oxa-9-azabicyclo[3.3.1]non-7-yl]-4-amino-5-chloro-2-methoxybenzamide]
percent increase (%) in the contraction height by the electrical stimulation after administration of the compound relative to the contraction height before administration of the compound: 22.4%
